Results taken from patent publication US4738979A, “α2 -blocking derivatives of imidazole” (G. D. Searle & Co., priority 1985, dated 1988).

Columns and labels:
α2 -adrenergic receptors [1] = biological target: T1, α2 -adrenergic receptors (Rattus norvegicus, UniProt P22909); assay: binding to α2-adrenergic receptors on rat brain homogenates (3H-p. aminoclonidine); conditions: 10^-7 M; rat brain homogenates; 0.7 nM 3H-p. aminoclonidine; read-out: % Inhibition of the Specific Binding at 10^-7 M for α2 Recep.
T1 construct: from tissue; host or cells: rat brain homogenates
T1 sequence (P22909 1-465): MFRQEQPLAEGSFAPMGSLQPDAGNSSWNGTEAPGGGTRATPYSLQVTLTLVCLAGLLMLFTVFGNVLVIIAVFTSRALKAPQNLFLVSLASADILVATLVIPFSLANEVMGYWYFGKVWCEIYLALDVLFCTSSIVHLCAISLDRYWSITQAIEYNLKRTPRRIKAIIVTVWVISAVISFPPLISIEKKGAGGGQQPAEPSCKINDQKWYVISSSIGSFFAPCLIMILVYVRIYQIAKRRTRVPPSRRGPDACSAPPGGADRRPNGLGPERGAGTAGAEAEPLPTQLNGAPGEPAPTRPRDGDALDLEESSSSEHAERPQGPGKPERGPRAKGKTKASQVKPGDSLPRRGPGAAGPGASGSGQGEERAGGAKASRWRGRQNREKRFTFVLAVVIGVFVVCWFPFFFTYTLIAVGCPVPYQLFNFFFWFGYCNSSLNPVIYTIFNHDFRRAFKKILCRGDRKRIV
Description: (§1) The activity of the compounds according to the invention with respect to binding of the α-adrenergic receptors was determined in vitro according to a method deriving from the works of B. R. Rouot et al., Life Sci., 25, 769 (1979) and of D. U'Prichard et al., Mol. Pharmacol., 13, 454 (1977). This method consists in measuring the binding to the receptor on rat brain homogenates, by marking by means of a specific tritriated ligand placed in competition with the product to be tested.
(§2) In the presenct case the binding to the α1 -adrenergic receptors was measured by means of 1.6 nM of ^3 H-WB 4101 and the binding to the α2 -adrenergic receptors by means of 0.7 nM of ^3 H-p. aminoclonidine, the non-specific binding being determined by 1,000 nM of phentolamine. The results are given in Table II, column 3, and are expressed in terms of percentage of inhibition of the specific binding of 10^-7 molar compound concentration.
(§3) (2) The specific binding is the total binding less the nonspecific
(§4) binding. The total binding is the binding in the absence of nonradioactiv
(§5) drug. The nonspecific binding is the binding in the presence of 1,000 nM
(§6) of phentolamine. The products of the invention are tested at a
(§7) concentration of 10^-7 molar.

[2] = test system: α2 adrenergic receptors of the central nervous system; assay: inhibition of the antihypertensive action of clonidine in spontaneously hypertensive rats (SHR); format: in vivo, rat; conditions: 1 mg/kg p.o., clonidine 50 μg/kg s.c.
Description: In the first study, carried out upon unanaesthetized spontaneously hypertensive rats (SHR rats), the ability of the compounds of the present invention to inhibit the antihypertensive action of clonidine was determined.
The antihypertensive activity of clonidine results from an interaction with α2 adrenergic receptors of the central nervous system, i.e., central antihypertensive actions.
In this test, two groups of SHR rats are utilized as follows. In the first group, prior to subcutaneous administration of clonidine (50 μg/kg), the SHR rats are treated with the compound to be tested (1 mg/kg p.o.) dissolved in a saline vehicle. The second group (control group) of SHR rats are treated with the saline vehicle only, prior to subcutaneous administration of clonidine.
The arterial pressure is measured in the region of the median coccygeal artery according to the method of J. Roba, A. F. DeSchaepdrijver, Exp. Anim., 4, 147-162 (1971).
The results of this assay summarized in Table II, column 5, are expressed as a percentage of inhibition of the effect of clonidine.

[3] = acute toxicity after oral administration to mice (LD50); conditions: mouse, in vivo, 15 days mortality
Description: The acute toxicity of the compounds of the present invention was studied after oral administration to mice. The products to be tested, suspended in a 1% tragacanth gum mucilage, were administered by means of an intragastric probe to groups of three male mice which had fasted since the preceding day. The doses tested are a function of the effect observed and can vary from 3,000 to 3 mg/kg or less. The mortality was recorded for 15 days. The lethal dose for 50% of the animals (LD50) was calculated according to the method of J. Litchfield and F. Wilcoxon, J. Pharmacol. Exp. Ther., 96, 99 (1949) and expressed in mg/kg. The effect of the products on the behaviour of the animals is observed until 5 to 6 hours after the treatment indicated above and after 24 hours, using a method derived from that of S. Irwin, described by R. A. Turner, Screening Methods in Pharmacology, Chapter 3, pages 22-34, Academic Press, 1965. If anomalies are noted, the observation is prolonged and smaller doses are tested.

[4] = test system: bicuculline-induced tonic extension in mice; assay: protection against bicuculline-induced tonic extension in mice; format: in vivo; conditions: Mus musculus, iv, 3 hours prior to bicuculline 0.7 mg/kg i.v., read-out: Anticonvulsive effect (versus Bicuculline) (% Protection)
Description: In the second study the anti-convulsant effect of the compounds of the present invention was examined in two seizure models; bicuculline-induced tonic extension in mice and 3-mercaptopropionic acid (3-MPA)-induced tonic extension in mice.
In the bicuculline study, the ability of the compounds of the present invention to protect against tonic extension (involving rigidity) was evaluated as follows. Each test compound was administered to a group of ten mice at a dose of 10 mg/kg, 3 hours prior to the i.v. administration of bicuculline (0.7 mg/kg). Anticonvulsant activity in this test is expressed as percentage of animals tested. The results are given in Table II, column 6, and indicate that several compounds display significant anticonvulsive activity in this test. The anticonvulsant effect of the compounds has also been tested with respect to the tonic extension induced by 3-mercaptopropionic acid (120 mg/kg subcutaneously) in mice.

α1 -adrenergic receptors = assay: binding to α1-adrenergic receptors on rat brain homogenates (3H-WB 4101); conditions: 1.6 nM 3H-WB 4101
Description: as §1, §2, §3, §4, §5, §6, §7

α2 -adrenergic receptors [5] = biological target: T2, α2 -adrenergic receptors (Cavia porcellus, UniProt Q60474); assay: α2 antagonist and α2 agonist activity in isolated guinea pig ileum (clonidine)
T2 construct: from tissue; host or cells: isolated guinea pig ileum
T2 sequence (Q60474 1-464): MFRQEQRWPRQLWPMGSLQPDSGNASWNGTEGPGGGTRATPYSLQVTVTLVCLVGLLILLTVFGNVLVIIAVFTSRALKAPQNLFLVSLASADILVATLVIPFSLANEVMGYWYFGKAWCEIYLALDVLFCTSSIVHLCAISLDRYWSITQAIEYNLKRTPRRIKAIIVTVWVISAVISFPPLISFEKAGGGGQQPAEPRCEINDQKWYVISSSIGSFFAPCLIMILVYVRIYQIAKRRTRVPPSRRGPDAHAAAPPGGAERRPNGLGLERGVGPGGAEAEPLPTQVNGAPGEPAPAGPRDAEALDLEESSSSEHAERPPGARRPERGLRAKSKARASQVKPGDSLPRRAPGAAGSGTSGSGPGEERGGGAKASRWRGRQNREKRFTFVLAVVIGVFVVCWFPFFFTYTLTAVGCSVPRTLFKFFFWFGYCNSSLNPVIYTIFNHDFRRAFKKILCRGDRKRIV
Description: The α2 antagonist and α2 agonist activity of the compounds according to the invention was determined upon isolated organs according to a model described by G. M. Drews, Br. J. Pharmaco., 64, 293-300 (1978).
This model is based upon the principle that the stimulation of the cholinergic nervous transmissions of the guinea pig ileum causes the liberation of acetyl choline, which in turn causes contractions of the ileum.
The stimulation of the α2 -adrenergic receptors inhibits the activity of the cholinergic nerve and consequently reduces all response resulting from a timulation of the latter. Thus the contractions of the ileum induced by electric stimulation of the tissue are inhibited by clonidine, an α2 agonist, in proportion to the dose. This inhibition is specifically displaced by the α2 antagonists and not by the α1 antagonists.
The method utilized can be summarized as follows: three dose-response curves to clonidine are established at an interval of 60 minutes. Two concentrations of the product to be tested are added successively 10 minutes before the realization of the second and third clonidine curves. Next, after washing, a dose-response curve is established with the product to be tested.
The dose-response curves are calculated as a percentage of the maximum inhibition obtained for the first curve. In this system the products having an α2 antagonist activity displace the dose-response curve to clonidine. The α2 antagonist activity, expressed in pA2 value, shown in column 4, is calculated according to J. M. Van Rossum, Arch. Int. Pharmacodyn., 143, 299-300 (1963).
A reduction of the contractions induced by the tested product alone indicates an α2 agonist effect. This activity is expressed in--log ED50 (the--logarithm of the concentration of the product giving 50% of the maximum inhibition obtained with clonidine).
The higher the pA2 value, the higher the α2 antagonist activity; the higher the--log ED50 value (i.e., the pA2 agonist activity), the higher the α2 agonist activity.

SMILES | inhibition at 0.1 µM (α2 -adrenergic receptors [1]) [%] | α2 Antagonist (% Inhibition of the Antihypertension of Clonidine) [2] [%] | LD50 at 360 h [3] [mg/kg] | responders at 10 mg/kg [4] [%] | % Inhibition of the Specific Binding at 10^-7 M for α1 Recep. (α1 -adrenergic receptors) [%] | EC50 (α2 -adrenergic receptors [5]; 50% of maximum inhibition obtained with clonidine, read-out: α2 Agonist Activity (-log ED50) (converted)) [nM] | Kb (α2 -adrenergic receptors [5]; versus clonidine, read-out: α2 Antagonist Activity (pA2) (converted)) [nM]
c1ccc(C(Cc2c[nH]cn2)(c2ccccc2)c2ccccc2)cc1 [Compound 8] | 0 | 28 | 1.75 | 20 | 0 | – | –
COC(c1c[nH]cn1)C(c1ccccc1)c1ccccc1 (stereo not shown) [Compound 6] | 0 | 62 | – | 30 | 0 | – | –
COC(=O)c1ccccc1C(Cc1c[nH]cn1)c1ccccc1 (stereo not shown) [Compound 31] | 20 | – | – | – | 13 | – | –
CC(=C(c1ccccc1)c1ccccc1)c1c[nH]cn1 [Compound 2, 4(5)-[(2,2-diphenyl-1-methyl)ethenyl]imidazole] | 43 | 71 | – | 20 | 3 | 2510 | 50.1
OC(c1c[nH]cn1)C(c1ccccc1)c1ccccc1 (stereo not shown) [Compound 5] | 2 | 24 | > 300 | 30 | 3 | – | –
CCCC(c1c[nH]cn1)C(c1ccccc1)c1ccccc1 (stereo not shown) [Compound 19, 4(5)-[2-(1,1-diphenyl)pentyl]imidazole] | 15 | 75 | 350 | 40 | 4 | – | –
CCCC(=C(c1ccccc1)c1ccccc1)c1c[nH]cn1 [Compound 18, 4(5)-[(2,2-diphenyl-1-n.propyl)-ethenyl]-imidazole] | 0 | 47 | 270 | 50 | 0 | – | –
C(=C(c1ccccc1)c1ccccc1)c1c[nH]cn1 [Compound 11] | 9 | 48 | – | 40 | 6 | – | –
Cc1nc(CC(c2ccccc2)c2ccccc2)c[nH]1 [Compound 25, 4(5)-(2,2-diphenylethyl)-2-methylimidazole] | 3 | 87 | – | 10 | 0 | – | –
CCCC(OC)(c1c[nH]cn1)C(c1ccccc1)c1ccccc1 (stereo not shown) [Compound 20, 4(5)-[2-(1,1-diphenyl-2-methoxy)-pentyl]imidazole] | 6 | 62 | > 300 | 60 | 0 | – | –
COC(c1c[nH]c(C)n1)C(c1ccccc1)c1ccccc1 (stereo not shown) [Compound 26] | 2 | – | 350 | 10 | 1 | – | –
O=C(O)c1ccccc1C(Cc1c[nH]cn1)c1ccccc1 (stereo not shown) [Compound 30] | 1 | – | > 300 | – | 12 | – | –
